Laboratory results published in PMC12373995 (Nature Communications, 2025).
Peptide text beside a SMILES is read from it. * marks the point of attachment. Cbz = O=C(OCc1ccccc1)*

Key:
[1] = target: T1, ERα (Homo sapiens, UniProt P03372); type: cell-based; settings: MCF-7 and T47D, with Bufalin
T1 sequence (P03372 1-595): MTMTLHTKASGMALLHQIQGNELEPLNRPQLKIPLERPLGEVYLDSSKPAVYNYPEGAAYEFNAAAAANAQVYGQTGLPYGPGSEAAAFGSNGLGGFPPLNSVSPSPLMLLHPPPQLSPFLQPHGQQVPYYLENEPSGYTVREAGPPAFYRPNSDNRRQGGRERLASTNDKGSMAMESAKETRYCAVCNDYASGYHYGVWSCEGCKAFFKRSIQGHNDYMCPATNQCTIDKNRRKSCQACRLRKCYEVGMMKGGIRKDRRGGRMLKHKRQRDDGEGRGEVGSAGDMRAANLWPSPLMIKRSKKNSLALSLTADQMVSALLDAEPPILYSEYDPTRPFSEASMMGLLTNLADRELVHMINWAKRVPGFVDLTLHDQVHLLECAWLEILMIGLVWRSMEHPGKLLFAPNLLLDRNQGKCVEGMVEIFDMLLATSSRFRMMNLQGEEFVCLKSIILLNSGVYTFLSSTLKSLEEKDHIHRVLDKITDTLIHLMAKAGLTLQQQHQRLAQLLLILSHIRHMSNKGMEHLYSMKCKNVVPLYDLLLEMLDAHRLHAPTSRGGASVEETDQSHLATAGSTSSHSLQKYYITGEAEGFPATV

[2] = tested on: MCF-7 cells; test: CCK-8 cell viability, MCF-7; type: cell-based, human; settings: MCF-7 and T47D, Supplementary Fig. 1e–g
[3] = tested on: Tamoxifen-resistant cells LCC2; test: CCK-8 cell viability, LCC2; type: cell-based, human; settings: LCC2, Fig. 7h, i
[4] = tested on: ESR1 mRNA; test: Real-time PCR of ESR1 mRNA, MCF-7; type: cell-based, human; settings: MCF-7, Supplementary Fig. 1a
[5] = tested on: LCC2 xenografts; test: Tamoxifen-resistant LCC2 xenografts in nude mice; type: in vivo
[6] = Serum markers of liver and kidney function in tumor-bearing mice; type: in vivo; settings: therapeutic doses
[7] = tested on: ESR1 mRNA; test: Real-time PCR of ESR1 mRNA, T47D; type: cell-based, human; settings: Supplementary Fig. 1b
[8] = tested on: ERα transcriptional activity (ERE); test: ERE-luciferase assay, MCF-7; type: cell-based, human; settings: Fig. 3i, MCF-7 and T47D
[9] = tested on: Tamoxifen-resistant patient-derived organoids (PDOs); test: Organoid live/dead staining; type: cell-based, human; settings: PDO
[10] = tested on: PARP and Bcl-2; test: PARP and Bcl-2 by western blot, LCC2; type: cell-based, human; settings: LCC2, 50 or 100 nM, 48 h

| Structure (SMILES) | Effect of co-treatment on Bufalin-induced ERα decrease [1] | Anti-cancer effects compared with Fulvestrant [2] | Anti-cancer effects compared with Fulvestrant [3] | mRNA of ERα [4] | ERα protein expression in tumors ([5]; IHC and western blot) | Anti-tumor activity compared with Fulvestrant ([5]; LCC2 xenografts) | Ki67 in tumors (IHC) ([5]; LCC2 xenografts) | Tumor volumes and weights ([5]; intraperitoneal injection) | Toxicity by serum liver and kidney markers [6] | mRNA of ERα [7] | Transcriptional activity of ERα (ERE luciferase) [8] | Cell death by Calcein-AM/PI staining [9] | Apoptosis markers PARP and Bcl-2 [10] |
| --- | --- | --- | --- | --- | --- | --- | --- | --- | --- | --- | --- | --- | --- |
| NS(=O)(=O)OC[C@@H]1C[C@@H](n2ccc3c(N[C@H]4CCc5ccccc54)ncnc32)C[C@@H]1O [MLN4924] | reversed the Bufalin-mediated downregulation of ERα |  |  |  |  |  |  |  |  |  |  |  |  |
| C[C@]12CC[C@H](O)C[C@H]1CC[C@@H]1[C@@H]2CC[C@]2(C)[C@@H](c3ccc(=O)oc3)CC[C@]12O [Bufalin] |  | stronger anti-cancer effects than Fulvestrant | better anti-cancer effects than Fulvestrant | no obvious change | the protein expression of ERα was decreased | superior anti-tumor activity to Fulvestrant | marked Ki67 suppression | the tumor volumes and weights significantly decreased | no significant signs of drug-induced toxicity | no obvious change | weakened the transcriptional activity of ERα | extensive cell death | PARP cleavage, and Bcl-2 downregulation |
| CC(C)C[C@@H](C=O)NC(=O)[C@H](CC(C)C)NC(=O)[C@H](CC(C)C)NC(=O)OCc1ccccc1 [MG-132] (Cbz-Leu-Leu-Leu-aldehyde) | effectively prevented the Bufalin-induced decrease in ERα protein levels |  |  |  |  |  |  |  |  |  |  |  |  |
